Measured values published in patent publication US8633245B2, “PAI-1 inhibitor” (Institute of Medicinal Molecular Design, Inc., priority 2008, dated 2014).
Like-named read-outs stand apart in the source and are kept apart here.

Molecular target: T1, recombinant human PAI-1 (Homo sapiens, UniProt P05121)
T1 construct: purchased Molecular Innovations, Inc
Experiment: Test Example 2: human PAI-1 inhibitory activity (tPA fluorogenic substrate, pH 7.4 HEPES buffer)
Assay type: biochemical
Method: 0.1 M HEPES, 0.1 M NaCl. 1 mM EDTA. 0.1% Polyethylene glycol 8,000 (Hampton Research Corporation),
2 mM Dimethyldecylphoshine oxide [Apo-10] (Fluka Corporation)

[1] = human PAI-1, compound concentration 0.1 μM
[2] = human PAI-1, compound concentration 0.3 μM
[3] = human PAI-1, compound concentration 1 μM
[4] = human PAI-1, compound concentration 3 μM
[5] = human PAI-1, calculated from the inhibition rates
[6] = read-out: Inhibition Rate of PAI-1 Activity (%)
[7] = human PAI-1, compound concentration 10 μM
[8] = human PAI-1, compound concentration 25 μM

T1 sequence (P05121 24-402): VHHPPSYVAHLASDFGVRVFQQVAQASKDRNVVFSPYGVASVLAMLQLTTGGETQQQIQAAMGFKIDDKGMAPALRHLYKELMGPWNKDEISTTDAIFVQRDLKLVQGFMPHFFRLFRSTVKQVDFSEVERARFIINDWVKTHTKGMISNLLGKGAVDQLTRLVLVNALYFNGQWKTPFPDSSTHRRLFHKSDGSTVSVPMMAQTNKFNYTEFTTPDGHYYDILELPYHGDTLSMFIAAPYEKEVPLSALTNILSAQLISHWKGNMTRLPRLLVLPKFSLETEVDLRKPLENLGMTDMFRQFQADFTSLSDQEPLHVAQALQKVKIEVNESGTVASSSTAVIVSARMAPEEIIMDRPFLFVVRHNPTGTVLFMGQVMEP

SMILES | Inhibition Rate of PAI-1 Activity (%) [1] | Inhibition Rate of PAI-1 Activity (%) [2] | Inhibition Rate of PAI-1 Activity (%) [3] | Inhibition Rate of PAI-1 Activity (%) [4] | also measured
CC(C)(C)c1ccc(Oc2ccc(Nc3ccc(OC(F)(F)F)cc3)cc2CCC(=O)O)cc1 [Compound 432] | 4% | 0% | 25% | 97% | 
O=C(O)CCc1ccc(-c2ccc(OC(F)(F)F)cc2)cc1Oc1ccc2ccccc2c1 [Compound 476] | 0% | 3% | 65% | >99% | 
CCCCC(CC(=O)O)c1cc(-c2ccc(OC(F)(F)F)cc2)ccc1Oc1ccc(C(C)(C)C)cc1 (stereo not drawn) [Compound 422] | 12% | 24% | 72% | >99% | 
CC(C)(C)c1ccc(Oc2cc(-c3ccc(Cl)cc3)ccc2OCC(=O)O)cc1 [Compound 457] | 21% | 18% | 63% | >99% | 
CC(C)(C)c1ccc(Sc2cc(-c3ccc(OC(F)(F)F)cc3)ccc2C(=O)C(=O)O)cc1 [Compound 548] | 0% | 16% | 95% | >99% | 
CCCCC(Oc1cc(-c2ccc(OC(F)(F)F)cc2)ccc1Oc1ccccc1)C(=O)O (stereo not drawn) [Compound 307] |  |  |  |  | IC50 [5]: 1530 nM
CCCCC(Oc1cc(Oc2ccc(OC(F)(F)F)cc2)ccc1Oc1ccc(C(C)(C)C)cc1)C(=O)O (stereo not drawn) [Compound 312] |  |  |  |  | IC50 [5]: 530 nM
Cc1ccc(-c2ccc(OCC(=O)O)c(Oc3ccc(C(C)(C)C)cc3)c2)cc1 [Compound 444] | 0% | 0% | 11% | 96% | 
CCCCCCCCCOc1cc(N(Cc2ccc(C(C)(C)C)cc2)C(=O)C(=O)O)ccc1-c1ccc(OC(F)(F)F)cc1 [Compound 388] |  |  |  |  | IC50: < 100 nM; inhibition at 0.3 µM [6]: > 99%; inhibition at 1 µM [6]: > 99%; inhibition at 3 µM [6]: > 99%
CCCCCCC(Oc1cc(-c2ccc(OC(F)(F)F)cc2)ccc1Oc1ccc(C(C)(C)C)cc1)C(=O)O (stereo not drawn) [Compound 323] |  |  |  |  | IC50 [5]: 490 nM
CCCCOc1ccc(Oc2cc(-c3ccc(OC(F)(F)F)cc3)ccc2CCC(=O)O)cc1 [Compound 461] | 1% | 26% | 95% | 98% | 
O=C(O)C(=O)N(CCCCc1ccccc1)c1cc(-c2ccc(OC(F)(F)F)cc2)ccc1OC1CCCCCC1 [Compound 659] | 12% | 26% | >99% | 96% | 
O=C(O)C(=O)N(CCCCc1ccccc1)c1cc(-c2ccc(OC(F)(F)F)cc2)ccc1OC1CCCC1 [Compound 658] | 9% | 20% | 97% | >99% | 
CCCCC(Oc1cc(-c2ccc(OC(F)(F)F)cc2)ccc1OCCCCc1ccccc1)C(=O)O (stereo not drawn) [Compound 306] |  |  |  |  | IC50 [5]: 880 nM
CCCCCOc1ccc(-c2cccc(OC(F)(F)F)c2)cc1N(CCCCc1ccccc1)C(=O)C(=O)O [Compound 391] |  |  |  |  | IC50: 780 nM
O=C(O)COc1ccc(-c2ccc(OC(F)(F)F)cc2)cc1Oc1ccc(OCc2ccccc2)cc1 [Compound 492] | 5% | 20% | >99% | >99% | 
CCCCCCCOc1ccc(N(CCCCc2ccccc2)C(=O)C(=O)O)cc1-c1ccc(OC(F)(F)F)cc1 [Compound 394] |  |  |  |  | IC50: 220 nM; inhibition at 3 µM [6]: > 99%
O=C(O)c1cc(-c2ccc(OC(F)(F)F)cc2)ccc1OCc1ccccc1 [Compound 401] |  |  |  | 15% | Inhibition Rate of PAI-1 Activity (%) [7]: 17%; Inhibition Rate of PAI-1 Activity (%) [8]: 53%

SMILES | Inhibition Rate of PAI-1 Activity (%) [1] | Inhibition Rate of PAI-1 Activity (%) [2] | Inhibition Rate of PAI-1 Activity (%) [3] | Inhibition Rate of PAI-1 Activity (%) [4] | also measured
CC(C)[C@@H]1CC[C@@H](C)C[C@H]1Oc1ccc(-c2ccc(OC(F)(F)F)cc2)cc1N(CCCCc1ccccc1)C(=O)C(=O)O [Compound 639] | 6% | 12% | 91% | 87% | 
CCCCCOc1cc(-c2ccc(C(F)(F)F)cc2)ccc1N(CCCCc1ccccc1)C(=O)C(=O)O [Compound 392] |  |  |  |  | IC50: 710 nM; inhibition at 3 µM [6]: > 99%
CCCCc1ccc(Oc2cc(-c3ccc(OC(F)(F)F)cc3)ccc2CCC(=O)O)cc1 [Compound 512] | 18% | 41% | 96% | 98% | 
CCCCC(Oc1cc(Oc2ccc(OC(F)(F)F)cc2)ccc1OCCCCc1ccccc1)C(=O)O (stereo not drawn) [Compound 309] |  |  |  |  | IC50 [5]: 660 nM
Cc1cccc(-c2ccc(OCC(=O)O)c(Oc3ccc(C(C)(C)C)cc3)c2)c1 [Compound 319] |  |  |  |  | IC50 [5]: 2100 nM
CC(C)(C)c1ccc(CCc2cc(-c3ccc(OC(F)(F)F)cc3)ccc2OCC(=O)O)cc1 [Compound 551] | 0% | 4% | 92% | >99% | 
O=C(O)COc1ccc(-c2ccc(OC(F)(F)F)cc2)cc1OCCCCc1ccccc1 [Compound 337] |  |  |  |  | IC50 [5]: 2020 nM
O=C(O)C(=O)N(Cc1ccc(-c2ccc(OC(F)(F)F)cc2)cc1)c1ccccc1 [Compound 611] |  |  | 5% | 13% | Inhibition Rate of PAI-1 Activity (%) [7]: 45%; Inhibition Rate of PAI-1 Activity (%) [8]: 81%
CCCCCOc1cc(-c2ccc(OC(F)(F)F)cc2)cc(OCc2ccc(C(C)(C)C)cc2)c1OCC(=O)O [Compound 301] |  |  |  |  | IC50 [5]: 470 nM
Cc1cc(C)cc(COc2ccc(-c3ccc(OC(F)(F)F)cc3)cc2N(CCCCc2ccccc2)C(=O)C(=O)O)c1 [Compound 662] | 18% | 28% | 98% | 95% | 
CC(C)(C)c1ccc(Oc2ccc(Oc3ccc(OC(F)(F)F)cc3)cc2OCC(=O)O)cc1 [Compound 537] | 0% | 26% | 92% | 97% | 
CC(C)(C)c1ccc(COc2ccc(NS(=O)(=O)c3ccc(OC(F)(F)F)cc3)cc2CCC(=O)O)cc1 [Compound 415] |  |  | 41% | 98% | Inhibition Rate of PAI-1 Activity (%) [7]: >99%; Inhibition Rate of PAI-1 Activity (%) [8]: >99%
CC(C)(C)c1ccc(Oc2cc(-c3ccc4ccccc4c3)ccc2CCC(=O)O)cc1 [Compound 470] | 3% | 16% | 87% | >99% | 
CCCCC(Oc1cc(-c2cccc(C)c2)ccc1Oc1ccc(C(C)(C)C)cc1)C(=O)O (stereo not drawn) [Compound 317] |  |  |  |  | IC50 [5]: 650 nM
CCCCC(Oc1cc(-c2ccc(OC(F)(F)F)cc2)ccc1OCc1ccc(C(C)(C)C)cc1)C(=O)O (stereo not drawn) [Compound 313] |  |  |  |  | IC50 [5]: 980 nM
O=C(O)C(=O)N(CCCCc1ccccc1)c1cc(-c2ccc(OC(F)(F)F)cc2)ccc1OCCCC1CCCC1 [Compound 355] |  |  |  |  | IC50 [5]: 640 nM
COc1ccc(-c2ccc(OCC(=O)O)c(Oc3ccc(C(C)(C)C)cc3)c2)cc1 [Compound 445] | 0% | 1% | 12% | 50% | 
CC(C)(C)c1ccc(Oc2ccc(-c3ccc(OC(F)(F)F)cc3)cc2OCC(=O)O)cc1 [Compound 328] | 0% | 14% | 30% | >99% | IC50 [5]: 1460 nM

More lines, main results first:

Inhibition Rate of PAI-1 Activity (%) [1] | Inhibition Rate of PAI-1 Activity (%) [2] | Inhibition Rate of PAI-1 Activity (%) [3] | Inhibition Rate of PAI-1 Activity (%) [4] | SMILES | also measured
12% | 16% | 86% | >99% | CC(C)(C)c1cccc(Oc2cc(-c3cccc(OC(F)(F)F)c3)ccc2CCC(=O)O)c1 [Compound 515] | 
6% | 36% | 98% | >99% | CC(C)(C)c1ccc(Oc2cc(-c3ccc(OC(F)(F)F)cc3)ccc2CCCC(=O)O)cc1 [Compound 527] | 
 |  | 6% | 64% | CC(C)(C)c1ccc(CN(C(=O)C(=O)O)c2ccc(C(=O)Nc3ccc(OC(F)(F)F)cc3)cc2)cc1 [Compound 617] | Inhibition Rate of PAI-1 Activity (%) [7]: >99%; Inhibition Rate of PAI-1 Activity (%) [8]: >99%
18% | 29% | 94% | >99% | CC(C)(C)c1ccc(Sc2cc(-c3ccc(OC(F)(F)F)cc3)ccc2/C=C\C(=O)O)cc1 [Compound 529] | 
11% | 15% | 78% | >99% | CCCCOc1ccc(Oc2cc(-c3ccc(OC(F)(F)F)cc3)ccc2OCC(=O)O)cc1 [Compound 523] | 
1% | 15% | 97% | >99% | CCCCCCOc1cc(-c2ccc(OC(F)(F)F)cc2)ccc1OC(CCCCCC)C(=O)O (stereo not drawn) [Compound 430] | 
4% | 11% | 39% | >99% | CSc1ccc(-c2ccc(OCC(=O)O)c(Oc3ccc(C(C)(C)C)cc3)c2)cc1 [Compound 448] | 
